Legend:
[1] = Metabolites of Compound 2 in rat bile following a 1.0 mg/kg IV bolus dose; assay type: in vivo; settings: 1.0 mg/kg IV bolus dose of Compound 2, bile duct cannulated rats, pooled 0-24 hrs
Description: Plasma and bile samples were obtained from a bile duct cannulated rat experiment (Study PK-0111) in which a 1.0 mg/kg IV bolus dose was administered to fed male rats (N=3). No control plasma was available from this experiment.
Bile samples (0-3, 3-7, and 7-24 hrs) from individual animals were pooled in proportion to the amount collect in each interval. Then 0.5 mL of each individual pool was combined to prepare a composite sample for analysis.
Pooled plasma and bile samples were extracted with ACN containing 0.1% formic acid, and after centrifugation at 1900×g, the supernatant was transferred to clean tubes and evaporated under N2 in a Turbovap set at 37° C. Residues were reconstituted in mobile phase (5:95 v:v ACN:0.1% aqueous formic acid) prior to analysis by HPLC/UV/MS^n.
(§1) Samples were analyzed by HPLC/UV/MS^n using a Thermo Orbitrap Elite mass spectrometer in conjunction with a Thermo Open Accela UHPLC system. A 3.0×150 mm, 2.5 μm Acquity CSH C18 HPLC column (Waters) was heated to 45° C. for separation of analytes. The mobile phase was a gradient of A): water containing 0.1% formic acid, and B): acetonitrile. The flow rate was 450 μL/min, and the following gradient program was utilized: […]
(§2) UV absorbance was monitored with a photo-diode array detector from 220-450 nm. The mass spectrometer was operated in positive-ion mode with a HESI ion source at a potential of 3.0 kV, and capillary and source heater temperatures of 380 and 300° C., respectively. Sheath, auxiliary, and sweep gas flows were set to 45, 10, and 2 units, respectively. Full scan mass spectra were acquired over the range 120-1200 m/z at a resolving power of 30,000 (specified at m/z 400). Data-dependent MS^n spectra were acquired in an automated fashion at 15,000 resolving power using CID and HCD fragmentation with normalized collision energy settings of 28 and 65 V, respectively.
(§3) Metabolites were characterized by comparisons of mass spectral fragmentation patterns with that of a Compound 2 standard. All HPLC/UV/MS^n data were processed using Xcalibur v. 2.2, and integrated UV peak areas were subjected to weighted UV binning procedures utilizing an Excel template.

rabbit hepatocytes = assay: In vitro metabolism of Compound 2 in rabbit cryopreserved hepatocytes; assay type: in vitro ADME; parameters: key to Relative abundance of metabolite of Compound 2, Rabbit: ND Not detected.; trace: Trace: observed by HPLC/MS measurements only.; + Minor as assessed by HPLC/UV measurements; ++ moderate as assessed by HPLC/UV measurements; +++ major as assessed by HPLC/UV measurements.; * m/z 593 and m/z 505 co-eluted in rabbit hepatocytes.; ** m/z 591 c and m/z 593 were merged in human hepatocytes and Hepatopack.; *** m/z 607 and m/z 751 b were merged in rabbit hepatocytes; settings: for metabolite of Compound 2 observed in rabbit hepatocyte incubations: 10 μM Compound 2, 7.5×10^5 cells/mL, 1 and 4 hrs composite
Description: (§4) Male CD-1 mouse hepatocytes (lot YHL), male Wistar-Han rat hepatocytes (Celsius; product number: M000065; lot: SLA), female New Zealand rabbit hepatocytes (lot 1510147), male cryopreserved cynomolgus monkey hepatocytes (Celsius; product number: M00305; lot: DNB) and mixed-gender cryopreserved human hepatocytes (Bioreclamation; product number: S01988; lot: DCM) were obtained for the hepatocyte in-vitro assessments.
(§5) At time 0 hrs 550 μL aliquots were removed from incubations and quenched with 5 volumes of ACN containing 0.1% formic acid. At 1 and 4 hrs, 275 μL aliquots were removed and quenched as above; these were combined in the same tube to prepare a composite sample. For all hepatocyte experiments, samples were processed by centrifugation at 1900×g for 5 minutes, and then the supernatant was transferred to clean glass tubes and evaporated to dryness under a stream of N2 using a Turbovap at 37° C. Sample residues were reconstituted in mobile phase prior to analysis by HPLC/UV/MS^n.
as §1, §2, §3

mouse hepatocytes = assay: In vitro metabolism of Compound 2 in mouse cryopreserved hepatocytes; assay type: in vitro ADME; parameters: key to Relative abundance of metabolite of Compound 2, Mouse: ND Not detected.; trace: Trace: observed by HPLC/MS measurements only.; + Minor as assessed by HPLC/UV measurements; ++ moderate as assessed by HPLC/UV measurements; +++ major as assessed by HPLC/UV measurements.; * m/z 593 and m/z 505 co-eluted in rabbit hepatocytes.; ** m/z 591 c and m/z 593 were merged in human hepatocytes and Hepatopack.; *** m/z 607 and m/z 751 b were merged in rabbit hepatocytes; settings: for metabolite of Compound 2 observed in mouse hepatocyte incubations: 10 μM Compound 2, 7.5×10^5 cells/mL, 1 and 4 hrs composite
Description: as §4, §5, §1, §2, §3

rat hepatocytes = assay: In vitro metabolism of Compound 2 in rat cryopreserved hepatocytes; assay type: in vitro ADME; parameters: key to Relative abundance of metabolite of Compound 2, Rat: ND Not detected.; trace: Trace: observed by HPLC/MS measurements only.; + Minor as assessed by HPLC/UV measurements; ++ moderate as assessed by HPLC/UV measurements; +++ major as assessed by HPLC/UV measurements.; * m/z 593 and m/z 505 co-eluted in rabbit hepatocytes.; ** m/z 591 c and m/z 593 were merged in human hepatocytes and Hepatopack.; *** m/z 607 and m/z 751 b were merged in rabbit hepatocytes; settings: for metabolite of Compound 2 observed in rat hepatocyte incubations: 10 μM Compound 2, 7.5×10^5 cells/mL, 1 and 4 hrs composite
Description: as §4, §5, §1, §2, §3

monkey hepatocytes = assay: In vitro metabolism of Compound 2 in monkey cryopreserved hepatocytes; assay type: in vitro ADME, cynomolgus monkey; parameters: key to Relative abundance of metabolite of Compound 2, Monkey: ND Not detected.; trace: Trace: observed by HPLC/MS measurements only.; + Minor as assessed by HPLC/UV measurements; ++ moderate as assessed by HPLC/UV measurements; +++ major as assessed by HPLC/UV measurements.; * m/z 593 and m/z 505 co-eluted in rabbit hepatocytes.; ** m/z 591 c and m/z 593 were merged in human hepatocytes and Hepatopack.; *** m/z 607 and m/z 751 b were merged in rabbit hepatocytes; settings: for metabolite of Compound 2 observed in monkey hepatocyte incubations: 10 μM Compound 2, 7.5×10^5 cells/mL, 1 and 4 hrs composite
Description: as §4, §5, §1, §2, §3

| Structure (SMILES) | detected in rat bile [1] | detected in rat bile ([1]; listed as m/z 331) | metabolite of Compound 2 observed in rabbit hepatocyte incubations (rabbit hepatocytes) | Relative abundance of metabolite of Compound 2, Rabbit (rabbit hepatocytes; rabbit cryopreserved hepatocytes, HPLC/UV/MS) | metabolite of Compound 2 observed in mouse hepatocyte incubations (mouse hepatocytes) | Relative abundance of metabolite of Compound 2, Mouse (mouse hepatocytes; mouse cryopreserved hepatocytes, HPLC/UV/MS) | metabolite of Compound 2 observed in rat hepatocyte incubations (rat hepatocytes) | Relative abundance of metabolite of Compound 2, Rat (rat hepatocytes; rat cryopreserved hepatocytes, HPLC/UV/MS) | metabolite of Compound 2 observed in monkey hepatocyte incubations (monkey hepatocytes) | Relative abundance of metabolite of Compound 2, Monkey (monkey hepatocytes; monkey cryopreserved hepatocytes, HPLC/UV/MS) | detected in rat bile ([1]; listed as m/z 751b) |
| --- | --- | --- | --- | --- | --- | --- | --- | --- | --- | --- | --- |
| C[C@]1(c2ccc(Cl)cn2)Oc2cccc(C3CCNCC3)c2O1 [Metabolite 331] | observed | detected | observed in all hepatocyte incubations | trace | observed in all hepatocyte incubations | + | observed in all hepatocyte incubations | trace | observed in all hepatocyte incubations | + | – |
| C[C@]1(c2ccc(Cl)cn2)Oc2cccc(C3CCN(Cc4nc5ccc(C(=O)O[C@@H]6O[C@H](C(=O)O)[C@@H](O)[C@H](O)[C@H]6O)cc5n4C[C@@H]4CCO4)CC3)c2O1 [Metabolite 751b] | observed | – | observed in all hepatocyte incubations | – | observed in all hepatocyte incubations | – | observed in all hepatocyte incubations | – | observed in all hepatocyte incubations | – | detected |
